Like-named read-outs stand apart in the source and are kept apart here.
Assays:
[1] = tested on: Leishmania infantum promastigotes; assay: In vitro antileishmanial activity on L. infantum promastigotes (MTT, 72 h); format: cell-based; details: L. infantum promastigotes, MTT, read-out: Anti-L. infantum Promastigote Activity EC50
Method: Luciferase-expressing Leishmania infantum was kindly provided by Professor Thierry Lang of the Institut Pasteur. L. infantum promastigotes were routinely grown at 27 °C in Schneider’s Drosophila Medium (Dominique […] SAS, Bernolsheim, France) supplemented with 10% fetal calf serum, 2% human urine, sodium pyruvate 0.04 mM, hemin 0.1 µg/mL, HEPES 5 mM, streptomycin 100 µg/mL, penicillin 100 U/mL, L-glutamine 2 mM (culture medium). The in vitro evaluation of the antileishmanial activity of the tested compound on L. infantum promastigotes forms was assessed according to the Mosmann protocol with slight modifications. […] Appropriate controls treated with DMSO, Miltefosine, Amphotericin B and Fexinidazole sulfone (reference drugs purchased from Sigma-Aldrich, Saint-Louis, MO, USA) were added to each set of experiments. The plates were incubated at 27 °C for 72 h, Then, each plate-well was microscope-analyzed to detect any precipitate formation. Afterward, 20 µL of MTT (3-(4,5-dimethylthiazol-2-yl)-2,5-diphenyltetrazolium bromide) (Sigma-Aldrich, Saint-Louis, MI, USA) solution (5 mg/mL in PBS) were added to each well and incubated at 27 °C for 4 h. The reaction was then stopped by the addition of 100 µL of 10% sodium dodecyl sulfate—50% isopropanol. Plates were shaken vigorously at 400 rpm for 10 min. […] EC50 values represent the mean value calculated from at least three separate experiments.

[2] = In vitro cytotoxicity on the human hepatic HepG2 cell line (MTT, 72 h); details: human, HepG2 cells (hepatocarcinoma cell line, ATCC HB-8065), HepG2 Cytotoxicity CC50, HepG2, 72 h, MTT
Method: (§1) HepG2 cell line (hepatocarcinoma cell line purchased from ATCC, ref HB-8065) was maintained at 37 °C, 5% CO2 with 90% humidity in MEM supplemented with 10% fetal bovine serum, 1% L-glutamine (200 mM) and penicillin (100 U/mL)/streptomycin ([…]) (complete MEM medium). The tested molecules’ cytotoxicity was assessed according to the method of Mosmann with slight modifications. Briefly, 5 × 10^3 cells in 100 μL of complete medium were inoculated into each well of 96-well plates and incubated at 37 °C in a humidified 5% CO2. After 24 h incubation, 100 μL of medium with various product concentrations dissolved in DMSO (final concentration less than 0.5% v/v) were added and the plates were incubated for 72 h at 37 °C. Triplicate assays were performed for each sample. Each plate well was then microscope-examined to detect possible precipitate formation before the medium was aspirated from the wells. Then, 100 μL of MTT (3-(4,5-dimethyl-2-thiazolyl)-2,5-diphenyl-2H-tetrazolium bromide) solution (0.5 mg/mL in medium without FCS) were then added to each well. Cells were incubated for 2 h at 37 °C, following which the MTT solution was removed and DMSO (100 μL) was added to dissolve the resulting blue formazan crystals. Plates were shaken vigorously (700 rpm) for 10 min. The absorbance was measured at 570 nm with 630 nm as reference wavelength using a TECAN Infinite F-200 spectrophotometer (Tecan Trading AG, Männedorf, Switzerland). DMSO was used as blank and doxorubicin (purchased from Sigma Aldrich, Saint Louis, MI, USA) as positive control. Cell viability was calculated as a percentage of control (cells incubated without compound). […] CC50 values represent the mean value calculated from three separate experiments.

HepG2 cell line = assay: as above; details: for Selectivity INDEX (SI = CC50/EC50): HepG2 CC50 / L. infantum promastigote EC50; for CC50: read-out: HepG2 Cytotoxicity CC50, HepG2, 72 h, MTT
Method: as §1

SMILES	melting point	also measured
O=C1NC(=O)/C(=C/c2cccc([N+](=O)[O-])c2)S1 [Compound 4]	–	EC50 ([1]; Leishmania infantum): 28 ± 7.15 µM; CC50 at 72 h [2]: 190 ± 18.6 µM; Selectivity INDEX (SI = CC50/EC50) (HepG2 cell line): 6.8
O=C1NC(=O)/C(=C/c2ccc([N+](=O)[O-])cc2)S1 [Compound 5]	–	EC50 [1]: 14.6 ± 2.9 µM; CC50 at 72 h [2]: 137.1 ± 1.22 µM; Selectivity INDEX (SI = CC50/EC50) (HepG2 cell line): 9.4
COc1cc(/C=C2\SC(=O)NC2=O)cc(OC)c1OC [Compound 6]	185 to 187 °C	–
CCOC(=O)CN1C(=O)S/C(=C\c2ccccc2)C1=O [Compound 12a]	–	EC50 ([1]; Leishmania infantum): 20.6 ± 5.86 µM; CC50 at 72 h [2]: 194 ± 8.92 µM; Selectivity INDEX (SI = CC50/EC50) (HepG2 cell line): 9.4
CCOC(=O)CN1C(=O)S/C(=C\c2ccccc2[N+](=O)[O-])C1=O [Compound 12b, Ethyl ((Z)-5-(2-nitrobenzylidene)thiazolidine-2,4-dion-3-yl)acetate]	81 to 83 °C	EC50 ([1]; Leishmania infantum): 24.1 ± 5.14 µM; CC50 at 72 h [2]: 39.4 ± 7.09 µM; Selectivity INDEX (SI = CC50/EC50) (HepG2 cell line): 1.6
CCOC(=O)CN1C(=O)S/C(=C\c2cccc([N+](=O)[O-])c2)C1=O [Compound 12c, Ethyl ((Z)-5-(3-nitrobenzylidene)thiazolidine-2,4-dion-3-yl)acetate]	–	EC50 ([1]; Leishmania infantum): 5.51 ± 1.29 µM; CC50 at 72 h [2]: 101 to 125 µM; Selectivity INDEX (SI = CC50/EC50) (HepG2 cell line): >22.7; CC50 (HepG2 cell line): > 125 µM
CCOC(=O)CN1C(=O)S/C(=C\c2ccc([N+](=O)[O-])cc2)C1=O [Compound 12d, Ethyl ((Z)-5-(4-nitrobenzylidene)thiazolidine-2,4-dion-3-yl)acetate]	136 to 138 °C	EC50 ([1]; Leishmania infantum): 11.6 ± 2.37 µM; CC50 at 72 h [2]: 101 to 125 µM; Selectivity INDEX (SI = CC50/EC50) (HepG2 cell line): >10.8; CC50 (HepG2 cell line): > 125 µM
CCOC(=O)CN1C(=O)S/C(=C\c2cc(OC)c(OC)c(OC)c2)C1=O [Compound 12e]	145 to 147 °C	–
CC(=O)CN1C(=O)S/C(=C\c2ccccc2)C1=O [Compound 13a, (Z)-5-Benzylidene-3-(2-oxopropyl)thiazolidine-2,4-dione]	139 to 140 °C	–
CC(=O)CN1C(=O)S/C(=C\c2ccccc2[N+](=O)[O-])C1=O [Compound 13b, (Z)-5-(2-Nitrobenzylidene)-3-(2-oxopropyl)thiazolidine-2,4-dione]	146 to 148 °C	–
CC(=O)CN1C(=O)S/C(=C\c2cccc([N+](=O)[O-])c2)C1=O [Compound 13c, (Z)-5-(3-Nitrobenzylidene)-3-(2-oxopropyl)thiazolidine-2,4-dione]	188 to 190 °C	–
CC(=O)CN1C(=O)S/C(=C\c2ccc([N+](=O)[O-])cc2)C1=O [Compound 13d, (Z)-5-(4-Nitrobenzylidene)-3-(2-oxopropyl)thiazolidine-2,4-dione]	207 to 209 °C	–
COc1cc(/C=C2\SC(=O)N(CC(C)=O)C2=O)cc(OC)c1OC [Compound 13e]	139 to 140 °C	–
N#CCN1C(=O)S/C(=C\c2ccccc2)C1=O [Compound 14a, (Z)-2-(5-Benzylidenethiazolidine-2,4-dion-3-yl)acetonitrile]	230 to 232 °C	–
N#CCN1C(=O)S/C(=C\c2ccccc2[N+](=O)[O-])C1=O [Compound 14b, (Z)-2-(5-(2-Nitrobenzylidene)thiazolidine-2,4-dion-3-yl)acetonitrile]	119 to 120 °C	–
NC(=O)CN1C(=O)S/C(=C\c2ccccc2)C1=O [Compound 15a, (Z)-2-(5-Benzylidenethiazolidine-2,4-dion-3-yl)acetamide]	229 to 231 °C	–
NC(=O)CN1C(=O)S/C(=C\c2ccccc2[N+](=O)[O-])C1=O [Compound 15b, (Z)-2-(5-(2-Nitrobenzylidene)thiazolidine-2,4-dion-3-yl)acetamide]	233 to 235 °C	–

SMILES	melting point	also measured
NC(=O)CN1C(=O)S/C(=C\c2ccc([N+](=O)[O-])cc2)C1=O [Compound 15d, (Z)-2-(5-(4-Nitrobenzylidene)thiazolidine-2,4-dion-3-yl)acetamide]	281 to 283 °C	–
COc1cc(/C=C2\SC(=O)N(CC(N)=O)C2=O)cc(OC)c1OC [Compound 15e]	274 to 275 °C (dec.)	–
O=C(CN1C(=O)S/C(=C\c2ccccc2)C1=O)c1ccccc1 [Compound 16a]	182 to 183 °C	–
O=C(CN1C(=O)S/C(=C\c2ccc([N+](=O)[O-])cc2)C1=O)c1ccccc1 [Compound 16d, (Z)-5-(4-Nitrobenzylidene)-3-(2-oxo-2-phenylethyl)thiazolidine-2,4-dione]	232 to 233 °C	–
COc1cc(/C=C2\SC(=O)N(CC(=O)c3ccccc3)C2=O)cc(OC)c1OC [Compound 16e, (Z)-3-(2-Oxo-2-phenylethyl)-5-(3,4,5-trimethoxybenzylidene)thiazolidine-2,4-dione]	187 to 189 °C	–
O=C(CN1C(=O)S/C(=C\c2ccccc2)C1=O)Nc1ccccc1 [Compound 23a]	259 to 260 °C	–
O=C(CN1C(=O)S/C(=C\c2cccc([N+](=O)[O-])c2)C1=O)Nc1ccccc1 [Compound 23c, (Z)-2-(5-(3-Nitrobenzylidene)thiazolidine-2,4-dion-3-yl)-N-phenylacetamide]	255 to 257 °C	–
O=C(CN1C(=O)S/C(=C\c2ccc([N+](=O)[O-])cc2)C1=O)Nc1ccccc1 [Compound 23d, (Z)-2-(5-(4-Nitrobenzylidene)thiazolidine-2,4-dion-3-yl)-N-phenylacetamide]	259 to 261 °C	–
COc1cc(/C=C2\SC(=O)N(CC(=O)Nc3ccc(C)cc3)C2=O)cc(OC)c1OC [Compound 24e, (Z)-N-(4-Methylphenyl)-2-(5-(3,4,5-trimethoxybenzylidene)thiazolidine-2,4-dion-3-yl)acetamide]	196 to 198 °C	–
COc1ccc(NC(=O)CN2C(=O)S/C(=C\c3ccc([N+](=O)[O-])cc3)C2=O)cc1 [Compound 25d, (Z)-N-(4-Methoxyphenyl)-2-(5-(4-nitrobenzylidene)thiazolidine-2,4-dion-3-yl)acetamide]	254 to 256 °C	–
COc1ccc(NC(=O)CN2C(=O)S/C(=C\c3cc(OC)c(OC)c(OC)c3)C2=O)cc1 [Compound 25e, (Z)-N-(4-Methoxyphenyl)-2-(5-(3,4,5-trimethoxybenzylidene)thiazolidine-2,4-dion-3-yl)acetamide]	215 to 216 °C	–
O=C(CN1C(=O)S/C(=C\c2ccccc2)C1=O)Nc1ccc([N+](=O)[O-])cc1 [Compound 26a, (Z)-2-(5-Benzylidenethiazolidine-2,4-dion-3-yl)-N-(4-nitrophenyl)acetamide]	270 to 272 °C	–
COc1cc(/C=C2\SC(=O)N(CC(=O)Nc3ccc([N+](=O)[O-])cc3)C2=O)cc(OC)c1OC [Compound 26e, (Z)-N-(4-Nitrophenyl)-2-(5-(3,4,5-trimethoxybenzylidene)thiazolidine-2,4-dion-3-yl)acetamide]	253 to 254 °C	–
O=C(CN1C(=O)S/C(=C\c2ccccc2)C1=O)Nc1ccccc1Cl [Compound 28a, (Z)-2-(5-Benzylidenethiazolidine-2,4-dion-3-yl)-N-(2-chlorophenyl)acetamide]	243 to 245 °C	–
COc1cc(/C=C2\SC(=O)N(CC(=O)Nc3ccccc3Cl)C2=O)cc(OC)c1OC [Compound 28e, (Z)-N-(2-Chlorophenyl)-2-(5-(3,4,5-trimethoxybenzylidene)thiazolidine-2,4-dion-3-yl)acetamide]	222 to 223 °C	–
O=C(O)CN1C(=O)S/C(=C\c2cccc([N+](=O)[O-])c2)C1=O [Compound 29, (Z)-2-(5-(3-Nitrobenzylidene)thiazolidin-2,4-dion-3-yl)acetic Acid]	191 to 193 °C	EC50 ([1]; Leishmania infantum): > 50 µM; CC50 at 72 h [2]: > 250 µM

Reference: article PMC11280390, “Synthesis of Nitrostyrylthiazolidine-2,4-dione Derivatives Displaying Antileishmanial Potential” (Pharmaceuticals, 2024)
